From the supplement of paper PMC9663587

Key:
[1] = compound: CCN1CCN(Cc2ccc(Nc3ncc(F)c(-c4cc(F)c5nc(C)n(C(C)C)c5c4)n3)nc2)CC1; experiment: increase in dead-cell fraction, 72 h; higher = more death;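 further: breast cancer cell lines in 384-well plates, stained with Hoechst plus LIVE/DEAD far red dye and imaged, cells above an LDR intensity threshold counted dead, Hoechst-negative corpses included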
Flavopiridol [2] = compound: T1, CN1CC[C@H](c2c(O)cc(O)c3c(=O)cc(-c4ccccc4Cl)oc23)[C@H](O)C1 [Flavopiridol]; experiment: as above
YKL-5-124 = compound: C=CC(=O)Nc1ccc(C(=O)Nc2[nH]nc3c2CN(C(=O)N[C@H](CN(C)C)c2ccccc2)C3(C)C)cc1 [YKL-5-124]; experiment: GR value, 72 h; higher = faster growth (1 = untreated, <0 = killing);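 further: breast cancer and non-malignant breast epithelial lines, nine half-log doses, viable cells counted by Hoechst and LIVE/DEAD dye imaging versus time-zero plates and DMSO controls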
BSJ-03-123 = compound: CC(=O)c1c(C)c2cnc(Nc3ccc(N4CCN(CCOCCOCCOCCNC(=O)COc5cccc6c5C(=O)N(C5CCC(=O)NC5=O)C6=O)CC4)cn3)nc2n(C2CCCC2)c1=O [BSJ-03-123]; experiment: as above
[3] = compound: CC(=O)c1c(C)c2cnc(Nc3ccc(N4CCNCC4)cn3)nc2n(C2CCCC2)c1=O; experiment: as above
[4] = compound: CCN1CCN(Cc2ccc(Nc3ncc(F)c(-c4cc(F)c5nc(C)n(C(C)C)c5c4)n3)nc2)CC1; experiment: as above
Neratinib/HKI272 = compound: CCOc1cc2ncc(C#N)c(Nc3ccc(OCc4ccccn4)c(Cl)c3)c2cc1NC(=O)/C=C/CN(C)C [Neratinib/HKI272]; experiment: as above
[5] = compound: CCc1cnn2c(NCc3ccc[n+]([O-])c3)cc(N3CCCC[C@H]3CCO)nc12; experiment: as above
LEE011/Ribociclib = compound: CN(C)C(=O)c1cc2cnc(Nc3ccc(N4CCNCC4)cn3)nc2n1C1CCCC1 [LEE011/Ribociclib]; experiment: as above
THZ531 = compound: CN(C)C/C=C/C(=O)Nc1ccc(C(=O)N2CCC[C@@H](Nc3ncc(Cl)c(-c4c[nH]c5ccccc45)n3)C2)cc1 [THZ531]; experiment: as above
THZ1 = compound: CN(C)C/C=C/C(=O)Nc1ccc(C(=O)Nc2cccc(Nc3ncc(Cl)c(-c4c[nH]c5ccccc45)n3)c2)cc1 [THZ1]; experiment: as above
Flavopiridol [6] = compound: T1, Flavopiridol; experiment: as above

In the case of HCC1937, the “increase in dead-cell fraction” value ([1]; 0.001 µM) is reported as -0.0017, the “increase in dead-cell fraction” value ([1]; 0.003162 µM) is reported as -0.0029 and the “increase in dead-cell fraction” value ([1]; 0.01 µM) is reported as -0.0019. The “increase in dead-cell fraction” value ([1]; 0.03162 µM) was -0.0004, the “increase in dead-cell fraction” value ([1]; 0.1 µM) was -0.0064 and the “increase in dead-cell fraction” value ([1]; 0.3162 µM) was -0.0073. For the same cell line, the “increase in dead-cell fraction” value ([1]; 1 µM) was -0.0012, the “increase in dead-cell fraction” value ([1]; 3.162 µM) was 0.0025 and the “increase in dead-cell fraction” value ([1]; 10 µM) was 0.0559. The “increase in dead-cell fraction” value (Flavopiridol [2]; 0.0001 µM) was -0.0009, the “increase in dead-cell fraction” value (Flavopiridol [2]; 0.0003162 µM) was -0.0013 and the “increase in dead-cell fraction” value (Flavopiridol [2]; 0.001 µM) was -0.0022. For the same cell line, the “increase in dead-cell fraction” value (Flavopiridol [2]; 0.003162 µM) was -0.0083, the “increase in dead-cell fraction” value (Flavopiridol [2]; 0.01 µM) was 0.0073 and the “increase in dead-cell fraction” value (Flavopiridol [2]; 0.03162 µM) was 0. The “increase in dead-cell fraction” value (Flavopiridol [2]; 0.1 µM) was 0.0006, the “increase in dead-cell fraction” value (Flavopiridol [2]; 0.3162 µM) was 0.0316 and the “increase in dead-cell fraction” value (Flavopiridol [2]; 1 µM) was 0.0846. The GR value (YKL-5-124; 0.001 µM) was 0.676 GR, the GR value (YKL-5-124; 0.003162 µM) was 0.451 GR and the GR value (YKL-5-124; 0.01 µM) was 0.249 GR. For the same cell line, the GR value (YKL-5-124; 0.03162 µM) was 0.165 GR, the GR value (YKL-5-124; 0.1 µM) was 0.0669 GR and the GR value (YKL-5-124; 0.3162 µM) was 0.0473 GR. The GR value (YKL-5-124; 1 µM) was -0.0273 GR, the GR value (YKL-5-124; 3.162 µM) was -0.052 GR and the GR value (YKL-5-124; 10 µM) was -0.196 GR. It also gave a GR value (BSJ-03-123; 0.001 µM) of 1.11 GR, a GR value (BSJ-03-123; 0.003162 µM) of 1.04 GR and a GR value (BSJ-03-123; 0.01 µM) of 0.933 GR. It also gave a GR value (BSJ-03-123; 0.03162 µM) of 1.05 GR, a GR value (BSJ-03-123; 0.1 µM) of 0.961 GR and a GR value (BSJ-03-123; 0.3162 µM) of 1.03 GR. The GR value (BSJ-03-123; 1 µM) was 0.918 GR, the GR value (BSJ-03-123; 3.162 µM) was 0.977 GR and the GR value (BSJ-03-123; 10 µM) was 0.525 GR. It also gave a GR value ([3]; 0.0003162 µM) of 1.04 GR, a GR value ([3]; 0.001 µM) of 1.1 GR and a GR value ([3]; 0.003162 µM) of 1.13 GR. For the same cell line, the GR value ([3]; 0.01 µM) was 1.1 GR, the GR value ([3]; 0.03162 µM) was 1.06 GR and the GR value ([3]; 0.1 µM) was 1.03 GR. For the same cell line, the GR value ([3]; 0.3162 µM) was 0.99 GR, the GR value ([3]; 1 µM) was 1.07 GR and the GR value ([3]; 3.162 µM) was 1.07 GR. It also gave a GR value ([4]; 0.001 µM) of 1.03 GR, a GR value ([4]; 0.003162 µM) of 1.04 GR and a GR value ([4]; 0.01 µM) of 1.06 GR. The GR value ([4]; 0.03162 µM) was 1.08 GR, the GR value ([4]; 0.1 µM) was 0.973 GR and the GR value ([4]; 0.3162 µM) was 0.941 GR. For the same cell line, the GR value ([4]; 1 µM) was 0.81 GR, the GR value ([4]; 3.162 µM) was 0.598 GR and the GR value ([4]; 10 µM) was 0.321 GR. The GR value (Neratinib/HKI272; 0.0003162 µM) was 0.987 GR, the GR value (Neratinib/HKI272; 0.001 µM) was 1.03 GR and the GR value (Neratinib/HKI272; 0.003162 µM) was 0.951 GR. It also gave a GR value (Neratinib/HKI272; 0.01 µM) of 0.945 GR, a GR value (Neratinib/HKI272; 0.03162 µM) of 0.897 GR and a GR value (Neratinib/HKI272; 0.1 µM) of 0.824 GR. The GR value (Neratinib/HKI272; 0.3162 µM) was 0.735 GR, the GR value (Neratinib/HKI272; 1 µM) was 0.633 GR and the GR value (Neratinib/HKI272; 3.162 µM) was 0.295 GR. For the same cell line, the GR value ([5]; 0.0001 µM) was 1.02 GR, the GR value ([5]; 0.0003162 µM) was 1.03 GR and the GR value ([5]; 0.001 µM) was 1.06 GR. It also gave a GR value ([5]; 0.003162 µM) of 1.1 GR, a GR value ([5]; 0.01 µM) of 0.983 GR and a GR value ([5]; 0.03162 µM) of 0.0186 GR. For the same cell line, the GR value ([5]; 0.1 µM) was -0.185 GR, the GR value ([5]; 0.3162 µM) was -0.211 GR and the GR value ([5]; 1 µM) was -0.206 GR. For the same cell line, the GR value (LEE011/Ribociclib; 0.001 µM) was 0.945 GR, the GR value (LEE011/Ribociclib; 0.003162 µM) was 0.893 GR and the GR value (LEE011/Ribociclib; 0.01 µM) was 1.14 GR. For the same cell line, the GR value (LEE011/Ribociclib; 0.03162 µM) was 1.02 GR, the GR value (LEE011/Ribociclib; 0.1 µM) was 1 GR and the GR value (LEE011/Ribociclib; 0.3162 µM) was 0.875 GR. It also gave a GR value (LEE011/Ribociclib; 1 µM) of 0.964 GR, a GR value (LEE011/Ribociclib; 3.162 µM) of 1.02 GR and a GR value (LEE011/Ribociclib; 10 µM) of 1.11 GR. The GR value (THZ531; 0.0001 µM) was 0.85 GR, the GR value (THZ531; 0.0003162 µM) was 1 GR and the GR value (THZ531; 0.001 µM) was 0.958 GR. The GR value (THZ531; 0.003162 µM) was 1.01 GR, the GR value (THZ531; 0.01 µM) was 1.09 GR and the GR value (THZ531; 0.03162 µM) was 1.16 GR. The GR value (THZ531; 0.1 µM) was 0.954 GR, the GR value (THZ531; 0.3162 µM) was 0.219 GR and the GR value (THZ531; 1 µM) was -0.302 GR. The GR value (THZ1; 0.0001 µM) was 0.926 GR, the GR value (THZ1; 0.0003162 µM) was 0.922 GR and the GR value (THZ1; 0.001 µM) was 0.98 GR. For the same cell line, the GR value (THZ1; 0.003162 µM) was 1.05 GR, the GR value (THZ1; 0.01 µM) was 1.14 GR and the GR value (THZ1; 0.03162 µM) was 0.808 GR. For the same cell line, the GR value (THZ1; 0.1 µM) was 0.104 GR, the GR value (THZ1; 0.3162 µM) was -0.107 GR and the GR value (THZ1; 1 µM) was -0.38 GR. For the same cell line, the GR value (Flavopiridol [6]; 0.0001 µM) was 1.08 GR, the GR value (Flavopiridol [6]; 0.0003162 µM) was 1.02 GR and the GR value (Flavopiridol [6]; 0.001 µM) was 0.946 GR. The GR value (Flavopiridol [6]; 0.003162 µM) was 1.01 GR, the GR value (Flavopiridol [6]; 0.01 µM) was 0.918 GR and the GR value (Flavopiridol [6]; 0.03162 µM) was 1.01 GR. The GR value (Flavopiridol [6]; 0.1 µM) was 0.691 GR, the GR value (Flavopiridol [6]; 0.3162 µM) was 0.19 GR and the GR value (Flavopiridol [6]; 1 µM) was -0.211 GR.
